In US7803992B2, “Methods and compositions for expressing an herbicide-tolerant polynucleotide” (Pioneer Hi-Bred International, Inc., priority 2005, dated 2010):

Tests used:
Format in all cases: in vivo
[1] = tested on: parent elite stiff stalk inbred corn; experiment: Preemergence herbicide application in greenhouse: fresh shoot weight and visual injury; conditions: for Fresh Weight: fresh shoots weighed 4 weeks after treatment, untreated 36.7 g; for pest or weed control at 200 g/ha: Zea mays, pre-emergence, 672 h, read-out: % Visual Injury
[2] = tested on: parent elite stiff stalk inbred corn; experiment: Postemergence herbicide application in greenhouse: fresh shoot weight and visual injury; conditions: for Fresh Weight: weighed 2 weeks after treatment, untreated 76.4 g; for pest or weed control at 200 g/ha: Zea mays, post-emergence, read-out: % Visual Injury
[3] = tested on: Heterozygous GAT-HRA corn; experiment: as above; conditions: for Fresh Weight: weighed 2 weeks after treatment, untreated 98.8 g; for pest or weed control at 200 g/ha: Zea mays, post-emergence, read-out: % Visual Injury
[4] = tested on: Heterozygous GAT-HRA corn; experiment: Preemergence herbicide application in greenhouse: fresh shoot weight and visual injury; conditions: for Fresh Weight: fresh shoots weighed 4 weeks after treatment, untreated 47.0 g; for pest or weed control at 200 g/ha: Zea mays, pre-emergence, 672 h, read-out: % Visual Injury
[5] = preemergence, 200 g/ha, 0% no injury, 100% plant death, mean of four replications
[6] = preemergence, 200 g/ha, mean of four replications
[7] = postemergence, 200 g/ha (glyphosate 3472 g ae/ha, glufosinate ammonium 1870 g/ha), 0% no injury, 100% plant death, mean of four replications
[8] = postemergence, 200 g/ha (glyphosate 3472 g ae/ha, glufosinate ammonium 1870 g/ha), mean of four replications

Compound	% Visual Injury [1, 5] [%]	Fresh Weight [1, 6] [g]	% Visual Injury [2, 7] [%]	Fresh Weight [2, 8] [g]	% Visual Injury [3, 7] [%]	Fresh Weight [3, 8] [g]	% Visual Injury [4, 5] [%]	Fresh Weight [4, 6] [g]	pest or weed control at 200 g/ha [1, 5] [%]	pest or weed control at 200 g/ha [2, 7] [%]	pest or weed control at 200 g/ha [3, 7] [%]	pest or weed control at 200 g/ha [4, 5] [%]	pest or weed control at 200 g/ha [1] [%]	pest or weed control at 200 g/ha ([2]; […]) [%]	pest or weed control at 200 g/ha ([3]; […]) [%]	pest or weed control at 200 g/ha [4] [%]
CCCOc1nn(C(=O)NS(=O)(=O)c2ccccc2C(=O)OC)c(=O)n1C [Propoxycarbazone Na^+, Propoxycarbazone]	100	0.6	100	1.9	9	101.2	100	46.7								
COc1nc(C)nc(NC(=O)NS(=O)(=O)c2ccccc2CCC(F)(F)F)n1 [Prosulfuron]		20.9		53.6		91.3		43.3	68	25	29	9				
CO/N=C(/C)c1cccc(Oc2nc(OC)cc(OC)n2)c1C(=O)OC [Pyriminobac-methyl]		30.4		7.6		95.2		39.9					83	93	4	20
COc1cc(OC)nc(Sc2cccc(Cl)c2C(=O)[O-])n1.[Na+] [Pyrithiobac Na^+, Pyrithiobac]	100	0.0	100	2.8	9	87.9	0	48.6								
COC(=O)c1ccccc1S(=O)(=O)NC(=O)Nc1nc(C)cc(C)n1 [Sulfometuron-methyl]		0.0		2.0		104.5		47.3					100	100	2	6
CCS(=O)(=O)c1nc2ccccn2c1S(=O)(=O)NC(=O)Nc1nc(OC)cc(OC)n1 [Sulfosulfuron]		1.0		4.0		105.5		50.6	100	97	3	18				
COC(=O)c1sccc1S(=O)(=O)NC(=O)Nc1nc(C)nc(OC)n1 [Thifensulfuron-methyl]		15.2		4.2		86.6		36.0	88	98	10	3				
COc1nc(C)nc(NC(=O)NS(=O)(=O)c2ccccc2OCCCl)n1 [Triasulfuron]		14.1		6.4		90.3		47.7	89	97	6	12				
COc1cc(OC)nc(NC(=O)NS(=O)(=O)c2ncccc2OCC(F)(F)F)n1 [Trifloxysulfuron Na^+, Trifloxysulfuron]	100	0.0	100	1.0	29	86.6	0	50.8								
COC(=O)c1cccc(C)c1S(=O)(=O)NC(=O)Nc1nc(OCC(F)(F)F)nc(N(C)C)n1 [Triflusulfuron-methyl]	100	26.3	100	2.1	8	110.9	5	53.5								
Imazamethabenz-methyl	61	36.2	11	66.9	16	95.0	15	48.5								
